According to patent publication US20260297081A1, “COMPOUNDS AND METHODS OF TREATING CANCERS” (Cullgen Inc., priority 2023, published 2026):

Assays:
[1] = system: Calu-1 cells; assay: Anti-proliferation (viability) of NSCLC Calu-1 cells, 3 days (Table 7, FIG. 2B); format: cell-based; details: Homo sapiens, 72 h; Calu-1 cells, 3 days, 10-point serial dilution; read-out: GI IC50 in Calu-1
Summary of the method: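 Cells treated with heterobifunctional compounds in 10-point serial dilution, then viability measured; Calu-1 NSCLC cells exposed for 3 days, ER+ T47D breast cancer cells for 6 days.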

[2] = system: MCF7 cells; assay: Anti-proliferation (viability) of MCF7 cells (Table 7, FIG. 2B); format: cell-based; details: Homo sapiens, MCF7, MCF7 cells, 3-6 days, 10-point serial dilution; read-out: GI IC50 in MCF-7

Structure (SMILES)	IC50 [1]	IC50 [2]
CC(=O)c1c(C)c2cnc(Nc3ccc(N4CC5(CN(CC(=O)NC6CC7(C6)CC(Nc6nc(NC(C)C)ccc6C(=O)Nc6ccc(N(C)C)nn6)C7)C5)C4)cn3)nc2n(C2CCCC2)c1=O (centres unmarked) [CPD-467, 2-((6-(2-(6-(6-((6-acetyl-8-cyclopentyl-5-methyl-7-oxo-7,8-dihydropyrido[2,3-d]pyrimidin-2-yl)amino)pyridin-3-yl)-2,6-diazaspiro[3.3]heptan-2-yl)acetamido)spiro[3.3]heptan-2-yl)amino)-N-(6-(dimethylamino)pyridazin-3-yl)-6-(isopropylamino)nicotinamide]	≤ 10 nM	> 100 nM
CC(=O)c1c(C)c2cnc(Nc3ccc(N4CC5(CN(CC(=O)NCC6CC(Nc7nc(NC(C)C)ccc7C(=O)Nc7ccc(N(C)C)nn7)C6)C5)C4)cn3)nc2n(C2CCCC2)c1=O (centres unmarked) [CPD-468, 2-((3-((2-(6-(6-((6-acetyl-8-cyclopentyl-5-methyl-7-oxo-7,8-dihydropyrido[2,3-d]pyrimidin-2-yl)amino)pyridin-3-yl)-2,6-diazaspiro[3.3]heptan-2-yl)acetamido)methyl)cyclobutyl)amino)-N-(6-(dimethylamino)pyridazin-3-yl)-6-(isopropylamino)nicotinamide]	10 to 50 nM	> 100 nM
CC(=O)c1c(C)c2cnc(Nc3ccc(N4CCN(C5CCN(C(=O)NC6CC7(C6)CC(Nc6nc(NC(C)C)ccc6C(=O)Nc6ccc(N(C)C)nn6)C7)C5)CC4)cn3)nc2n(C2CCCC2)c1=O (centres unmarked) [CPD-470, 2-((6-(3-(4-(6-((6-acetyl-8-cyclopentyl-5-methyl-7-oxo-7,8-dihydropyrido[2,3-d]pyrimidin-2-yl)amino)pyridin-3-yl)piperazin-1-yl)pyrrolidine-1-carboxamido)spiro[3.3]heptan-2-yl)amino)-N-(6-(dimethylamino)pyridazin-3-yl)-6-(isopropylamino)nicotinamide]	≤ 10 nM	> 100 nM
[2H]C([2H])([2H])Nc1ccc(C(=O)Nc2ccc(N(C)C)nn2)c(NC2CC(C(=O)N3CCC(N4CCN(c5ccc(Nc6ncc7c(C)c(C(C)=O)c(=O)n(C8CCCC8)c7n6)nc5)CC4)C3)C2)n1 (centres unmarked) [CPD-471, 2-((3-(3-(4-(6-((6-acetyl-8-cyclopentyl-5-methyl-7-oxo-7,8-dihydropyrido[2,3-d]pyrimidin-2-yl)amino)pyridin-3-yl)piperazin-1-yl)pyrrolidine-1-carbonyl)cyclobutyl)amino)-N-(6-(dimethylamino)pyridazin-3-yl)-6-((methyl-d3)amino)nicotinamide]	≤ 10 nM	< 50 nM
[2H]C([2H])([2H])Nc1ccc(C(=O)Nc2ccc(N(C)C)nn2)c(NC2CCN(C(=O)CN3CCN(Cc4ccc(Nc5ncc6c(C)c(C(C)=O)c(=O)n(C7CCCC7)c6n5)nc4)CC3)CC2)n1 [CPD-474, 2-((1-(2-(4-((6-((6-acetyl-8-cyclopentyl-5-methyl-7-oxo-7,8-dihydropyrido[2,3-d]pyrimidin-2-yl)amino)pyridin-3-yl)methyl)piperazin-1-yl)acetyl)piperidin-4-yl)amino)-N-(6-(dimethylamino)pyridazin-3-yl)-6-((methyl-d3)amino)nicotinamide]	≤ 10 nM	50 to 100 nM
CC(=O)c1c(C)c2cnc(Nc3ccc(CN4CCN(CC(=O)NC5CC(Nc6nc(NC(C)C)ccc6C(=O)Nc6ccc(N(C)C)nn6)C5)CC4)cn3)nc2n(C2CCCC2)c1=O (centres unmarked) [CPD-475, 2-((3-(2-(4-((6-((6-acetyl-8-cyclopentyl-5-methyl-7-oxo-7,8-dihydropyrido[2,3-d]pyrimidin-2-yl)amino)pyridin-3-yl)methyl)piperazin-1-yl)acetamido)cyclobutyl)amino)-N-(6-(dimethylamino)pyridazin-3-yl)-6-(isopropylamino)nicotinamide]	≤ 10 nM	> 100 nM
[2H]C([2H])([2H])Nc1ccc(C(=O)Nc2ccc(N(C)C)nn2)c(N[C@H]2CC[C@H](C(=O)N3CCC(N4CCN(c5ccc(Nc6ncc7c(C)c(C(C)=O)c(=O)n(C8CCCC8)c7n6)nc5)CC4)C3)CC2)n1 (stereo partly drawn) [CPD-476, 2-((trans-4-(3-(4-(6-((6-acetyl-8-cyclopentyl-5-methyl-7-oxo-7,8-dihydropyrido[2,3-d]pyrimidin-2-yl)amino)pyridin-3-yl)piperazin-1-yl)pyrrolidine-1-carbonyl)cyclohexyl)amino)-N-(6-(dimethylamino)pyridazin-3-yl)-6-((methyl-d3)amino)nicotinamide]	≤ 10 nM	< 50 nM
[2H]C([2H])([2H])Nc1ccc(C(=O)Nc2cc(C)n(C)n2)c(N[C@H]2CC[C@H](C(=O)N3CCC(N4CCN(c5ccc(Nc6ncc7c(C)c(C(C)=O)c(=O)n(C8CCCC8)c7n6)nc5)CC4)C3)CC2)n1 (some centres unmarked) [CPD-477, 2-((4-(3-(4-(6-((6-acetyl-8-cyclopentyl-5-methyl-7-oxo-7,8-dihydropyrido[2,3-d]pyrimidin-2-yl)amino)pyridin-3-yl)piperazin-1-yl)pyrrolidine-1-carbonyl)cyclohexyl)amino)-N-(1,5-dimethyl-1H-pyrazol-3-yl)-6-((methyl-d3)amino)nicotinamide]	10 to 50 nM	> 100 nM
[2H]C([2H])([2H])Nc1ccc(C(=O)Nc2ccc(N(C)C)nn2)c(NC2CCN(C(=O)N3CCC(N4CCN(c5ccc(Nc6ncc7c(C)c(C(C)=O)c(=O)n(C8CCCC8)c7n6)nc5)CC4)C3)CC2)n1 (centres unmarked) [CPD-482, 2-((1-(3-(4-(6-((6-acetyl-8-cyclopentyl-5-methyl-7-oxo-7,8-dihydropyrido[2,3-d]pyrimidin-2-yl)amino)pyridin-3-yl)piperazin-1-yl)pyrrolidine-1-carbonyl)piperidin-4-yl)amino)-N-(6-(dimethylamino)pyridazin-3-yl)-6-((methyl-d3)amino)nicotinamide]	≤ 10 nM	< 50 nM
CC(=O)c1c(C)c2cnc(Nc3ccc(CN4CCC(NC(=O)C5CC6(CC(Nc7nc(NC(C)C)ccc7C(=O)Nc7ccc(N(C)C)nn7)C6)C5)CC4)cn3)nc2n(C2CCCC2)c1=O (centres unmarked) [CPD-486, 2-((6-((1-((6-((6-acetyl-8-cyclopentyl-5-methyl-7-oxo-7,8-dihydropyrido[2,3-d]pyrimidin-2-yl)amino)pyridin-3-yl)methyl)piperidin-4-yl)carbamoyl)spiro[3.3]heptan-2-yl)amino)-N-(6-(dimethylamino)pyridazin-3-yl)-6-(isopropylamino)nicotinamide]	≤ 10 nM	< 50 nM
[2H]C([2H])([2H])Nc1ccc(C(=O)Nc2ccc(N(C)C)nn2)c(NC2CC3(C2)CN(C(=O)CN2CCN(C(C)c4ccc(Nc5ncc6c(C)c(C(C)=O)c(=O)n(C7CCCC7)c6n5)nc4)CC2)C3)n1 (centres unmarked) [CPD-488, 2-((2-(2-(4-(1-(6-((6-acetyl-8-cyclopentyl-5-methyl-7-oxo-7,8-dihydropyrido[2,3-d]pyrimidin-2-yl)amino)pyridin-3-yl)ethyl)piperazin-1-yl)acetyl)-2-azaspiro[3.3]heptan-6-yl)amino)-N-(6-(dimethylamino)pyridazin-3-yl)-6-((methyl-d3)amino)nicotinamide]	≤ 10 nM	< 50 nM
CC(=O)c1c(C)c2cnc(Nc3ccc(N4CCN(C(C)CC(=O)NC56CC(Nc7nc(NC(C)C)ccc7C(=O)Nc7ccc(N(C)C)nn7)(C5)C6)CC4)cn3)nc2n(C2CCCC2)c1=O (centres unmarked) [CPD-504, 2-((3-(3-(4-(6-((6-acetyl-8-cyclopentyl-5-methyl-7-oxo-7,8-dihydropyrido[2,3-d]pyrimidin-2-yl)amino)pyridin-3-yl)piperazin-1-yl)butanamido)bicyclo[1.1.1]pentan-1-yl)amino)-N-(6-(dimethylamino)pyridazin-3-yl)-6-(isopropylamino)nicotinamide]	≤ 10 nM	< 50 nM
CCc1ccc(C(=O)Nc2ccc(N(C)C)nn2)c(N[C@H]2CC[C@H](C(=O)N3CCC(N4CCN(c5ccc(Nc6ncc7c(C)c(C(C)=O)c(=O)n(C8CCCC8)c7n6)nc5)CC4)C3)CC2)c1 (stereo partly drawn) [CPD-526, 2-((trans-4-(3-(4-(6-((6-acetyl-8-cyclopentyl-5-methyl-7-oxo-7,8-dihydropyrido[2,3-d]pyrimidin-2-yl)amino)pyridin-3-yl)piperazin-1-yl)pyrrolidine-1-carbonyl)cyclohexyl)amino)-N-(6-(dimethylamino)pyridazin-3-yl)-4-ethylbenzamide]	≤ 10 nM	< 50 nM
CC(=O)c1c(C)c2cnc(Nc3ccc(N4CCN(C5CCN(C(=O)[C@H]6CC[C@H](Nc7cc(C(C)C)ccc7C(=O)Nc7ccc(N(C)C)nn7)CC6)C5)CC4)cn3)nc2n(C2CCCC2)c1=O (stereo partly drawn) [CPD-528, 2-((trans-4-(3-(4-(6-((6-acetyl-8-cyclopentyl-5-methyl-7-oxo-7,8-dihydropyrido[2,3-d]pyrimidin-2-yl)amino)pyridin-3-yl)piperazin-1-yl)pyrrolidine-1-carbonyl)cyclohexyl)amino)-N-(6-(dimethylamino)pyridazin-3-yl)-4-isopropylbenzamide]	≤ 10 nM	< 50 nM
CC(=O)c1c(C)c2cnc(Nc3ccc(CN4CCN(CC(=O)N5CCC(Nc6nc(NC(C)C)ccc6C(=O)Nc6cc7n(n6)CCC7)CC5)CC4)cn3)nc2n(C2CCCC2)c1=O [CPD-530, 2-((1-(2-(4-((6-((6-acetyl-8-cyclopentyl-5-methyl-7-oxo-7,8-dihydropyrido[2,3-d]pyrimidin-2-yl)amino)pyridin-3-yl)methyl)piperazin-1-yl)acetyl)piperidin-4-yl)amino)-N-(5,6-dihydro-4H-pyrrolo[1,2-b]pyrazol-2-yl)-6-(isopropylamino)nicotinamide]	10 to 50 nM	> 100 nM
COc1cccc(NC(=O)c2ccc(NC(C)C)nc2NC2CCN(C(=O)CN3CCN(Cc4ccc(Nc5ncc6c(C)c(C(C)=O)c(=O)n(C7CCCC7)c6n5)nc4)CC3)CC2)n1 [CPD-533]	≤ 10 nM	50 to 100 nM
